Entries after “also recorded” stand apart in the source; their conditions may differ.

What all share (assay type): physicochemical
Data set [1] is described as follows: Sulfoxide impurity level over six months. From the text: Further, one of the impurity (sulfoxide) which was being generated in API increases from 0.17% to 0.76% over a period of 6 months. […] Therefore stabilization of compositions containing compounds of formula (I) can be made by maintaining the microenvironmental pH of composition above 7 by using suitable alkalinizers. Use of a suitable antioxidant(s) and chelating agent(s) further stabilizes the formulation.

Data set [2] in a line: pH degradation of API in standard pH buffers (sulfoxide impurity at 0.3 RRT). To be noted: different standard pH buffers, after 24 hours. On the procedure: FIG. 1: Percentage of sulfoxide impurity level (0.3 RRT) at different pH after 24 hours.
When the pH was modulated by addition of alkalinizer(s) then sulfoxide impurity level in API is restricted.
About 1% w/v aqueous dispersion of tablets was used for pH measurement. pH degradation can be seen with API when kept in different standard pH buffers.

The nature of data set [3]: Stability of API at 40° C./75% RH (percent purity). The source says:
(§1) Therefore the inventors of the present invention have tried to develop a stable formulation of API such that the API is protected and cannot absorb moisture.

Data set [4] is described as follows: Moisture absorption of API at 40° C./75% RH (water by KF).
Excerpt: as §1

For `CCO[C@@H](Cc1ccc(OCCn2c(C)ccc2-c2ccc(SC)cc2)cc1)C(=O)O` [API, Saroglitazar Magnesium], the results for the sulfoxide impurity level in data set [1] (after 6 months) and in data set [1] (start of the six month period) were 0.76% and 0.17%, respectively. Moreover, the “Percentage individual impurity at 0.3 RRT (Sulphoxide impurity)” value in data set [2] is on record as “restricted; also recorded: decreases as the solution of pH increases above pH 7”. Moreover, the “Percent Purity” value in data set [3] (1 Month) turned out to be 98.10%; in data set [3] (2 Month), 97.93%; in data set [3] (3 Month), 97.17%; in data set [3] (Initial), 98.48%. The Water By KF in data set [4] (1 Month) worked out at 1.17%; in data set [4] (2 Month), 2.32%; in data set [4] (3 Month) it was 2.57%; in data set [4] (Initial) it was 0.62%.

These data come from patent US9610277B2, “Formula comprising a hypolipidemic agent” (Cadila Healthcare Limited, priority 2013, dated 2017).
